The record followed here is paper PMC8060913, “The Calcium-Activated Chloride Channel TMEM16A is Inhibitied by Liquiritigenin” (Frontiers in Pharmacology, 2021).

Where two headings read alike, the source gives them in different places.

Holding throughout (assay type): cell-based
Test [1] concerns the target T1, mouse TMEM16A (mTMEM16A, anoctamin 1) (Mus musculus, UniProt Q8BHY3).
T1 construct: gene Ano1
T1 sequence (Q8BHY3 1-960): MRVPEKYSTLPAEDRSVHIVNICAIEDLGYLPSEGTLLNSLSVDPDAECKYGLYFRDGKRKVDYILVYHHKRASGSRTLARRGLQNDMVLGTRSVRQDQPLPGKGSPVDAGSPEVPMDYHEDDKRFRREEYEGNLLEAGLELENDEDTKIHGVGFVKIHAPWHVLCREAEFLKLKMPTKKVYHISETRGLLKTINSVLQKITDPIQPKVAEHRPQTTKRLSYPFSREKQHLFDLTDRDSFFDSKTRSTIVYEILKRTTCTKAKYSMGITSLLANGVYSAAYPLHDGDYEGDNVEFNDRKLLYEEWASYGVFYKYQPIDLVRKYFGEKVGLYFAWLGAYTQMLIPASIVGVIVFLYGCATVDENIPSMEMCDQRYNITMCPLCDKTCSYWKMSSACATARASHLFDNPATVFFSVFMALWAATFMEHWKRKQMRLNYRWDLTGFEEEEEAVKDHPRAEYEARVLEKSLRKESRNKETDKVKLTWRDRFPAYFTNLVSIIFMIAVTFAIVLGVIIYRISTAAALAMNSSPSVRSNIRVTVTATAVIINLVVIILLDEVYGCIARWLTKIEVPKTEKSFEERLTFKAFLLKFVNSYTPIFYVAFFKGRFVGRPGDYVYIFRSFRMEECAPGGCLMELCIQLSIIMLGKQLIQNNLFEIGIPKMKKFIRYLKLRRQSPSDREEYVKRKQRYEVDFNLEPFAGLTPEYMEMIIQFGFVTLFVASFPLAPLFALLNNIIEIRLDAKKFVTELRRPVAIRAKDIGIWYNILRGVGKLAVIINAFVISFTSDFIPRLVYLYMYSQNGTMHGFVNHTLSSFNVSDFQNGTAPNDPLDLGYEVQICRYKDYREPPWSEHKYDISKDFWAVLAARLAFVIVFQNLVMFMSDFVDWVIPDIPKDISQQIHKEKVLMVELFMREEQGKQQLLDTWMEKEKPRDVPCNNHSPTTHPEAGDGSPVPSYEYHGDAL
As to the kind of experiment: whole-cell patch-clamp in transfected HEK293T cells, +[…] mV. (The patch-clamp technique gives a direct electrical read-out from membranes.)

Test [2] addresses T2, human TMEM16A (hTMEM16A, anoctamin 1) (Homo sapiens, UniProt Q5XXA6).
T2 construct: gene ANO1; untagged complete CDS
T2 sequence (Q5XXA6 1-986): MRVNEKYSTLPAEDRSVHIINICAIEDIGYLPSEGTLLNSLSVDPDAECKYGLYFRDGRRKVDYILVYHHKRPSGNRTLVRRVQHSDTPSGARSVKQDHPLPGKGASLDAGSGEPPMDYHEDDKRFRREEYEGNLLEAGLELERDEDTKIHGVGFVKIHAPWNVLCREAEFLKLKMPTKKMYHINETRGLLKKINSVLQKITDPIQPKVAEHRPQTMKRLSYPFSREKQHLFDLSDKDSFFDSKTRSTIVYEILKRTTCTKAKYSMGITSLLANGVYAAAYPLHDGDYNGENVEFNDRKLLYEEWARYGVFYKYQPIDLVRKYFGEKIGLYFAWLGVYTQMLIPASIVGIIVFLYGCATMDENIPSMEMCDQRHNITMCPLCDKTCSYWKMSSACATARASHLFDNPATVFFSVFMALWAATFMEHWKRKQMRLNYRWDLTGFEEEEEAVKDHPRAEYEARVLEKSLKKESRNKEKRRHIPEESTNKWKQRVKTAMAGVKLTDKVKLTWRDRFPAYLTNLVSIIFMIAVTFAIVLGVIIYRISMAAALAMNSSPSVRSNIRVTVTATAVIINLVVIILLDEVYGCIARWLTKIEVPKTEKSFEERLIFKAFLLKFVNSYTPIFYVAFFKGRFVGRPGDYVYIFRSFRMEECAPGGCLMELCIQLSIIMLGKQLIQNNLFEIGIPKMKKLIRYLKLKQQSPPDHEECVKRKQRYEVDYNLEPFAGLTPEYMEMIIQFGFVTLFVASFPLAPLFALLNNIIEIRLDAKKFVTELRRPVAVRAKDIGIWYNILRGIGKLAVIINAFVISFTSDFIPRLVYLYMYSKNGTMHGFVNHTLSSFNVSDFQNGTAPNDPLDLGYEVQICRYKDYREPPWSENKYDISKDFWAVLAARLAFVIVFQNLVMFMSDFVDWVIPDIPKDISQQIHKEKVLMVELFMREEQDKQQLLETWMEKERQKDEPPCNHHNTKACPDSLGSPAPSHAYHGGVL
The test is described as above.

In test [3] the target is T1, mouse TMEM16A (mTMEM16A, anoctamin 1). As to the kind of experiment: whole-cell patch-clamp in transfected HEK293T cells, % inhibition at […], +[…] mV. Particulars: HEK-293T.
Test [4] addresses T2, human TMEM16A (hTMEM16A, anoctamin 1). The test is described as above. The note with it: HEK-293T.

Consider `O=C1c2ccc(O)cc2OCC1c1ccc(O)cc1` (stereo not drawn) [dihydrodaidzein], for which the IC50 (commonly the concentration that inhibits the measured activity by half) in test [1] (read-out: IC50) was found to be 178 µM; in test [2] (read-out: IC50), 251 µM.
Regarding `O=C1C[C@@H](c2ccc(O)cc2)Oc2cc(O)ccc21` [liquiritigenin], the results for the IC50 in test [1] and in test [2] were 21.3 µM and 12.9 µM, respectively.
Consider `C[C@]12CC[C@@H]3c4ccc(O)cc4CC[C@H]3[C@@H]1C[C@@H](O)[C@@H]2O` [E3, estriol], for which the inhibition (as a rule, the change of the read-out against control, counted positive when it falls) at 100 µM in test [3] came to 56.8%; in test [4] it was 43.5%.
